Here are results for two molecules from patent US7056734B1, “Differentiation of non-insulin producing cells into insulin producing cells by GLP-1 or exendin-4 and uses thereof” (The United States of America as represented by the …, priority 1998, dated 2006).

In data set [1] the test system is diabetic mice (C57BLKS/J-Lepr^db/Lepr^db). Put plainly: Daily ip exendin-4 in diabetic mice. It is filed as in vivo, mouse. The source says: (§1) Animals. Four month old Wistar rats from the Wistar colony in the NIA (Baltimore, Md.) were used for the acute experiments of the effects of exendin-4 and GLP-1 (see Example 1). They had been maintained on standard lab chow and fed ad libitum. For the long-term experiments, diabetic mice (C57BLKS/J-Lepr^db/Lepr^db) lacking the leptin receptor, and their non-diabetic littermates were purchased at 4 weeks of age from Jackson Laboratories (Bar Harbor, Me.). They were housed two per cage and also were fed ad libitum. The same mice were caged together for the duration of the study. Wistar rats are caged on wire while the bedding for the mice was a paper based product, “Carefresh” (Absorption Co., Bellingham, Wash.).
(§2) Subsequently, whole blood glucose levels, taken from a retro-orbital sinus, were determined in the mice using a Glucometer Elite (Bayer). This regimen was continued for 12–13 weeks. […] Animals were weighed weekly. After one week of the regimen blood samples were again taken from a retro-orbital sinus for determination of insulin and glucose levels. At the end of the regimen, fasting blood samples were obtained for glucose and insulin levels and whole blood containing EDTA was assayed for hemoglobin A1c (Hb A1c) on the same day from the four groups.
(§3) Assays. Plasma glucose was measured by the glucose oxidase method (Wang et al., 1997). Insulin was measured by RIA as previously described (See Example 1). Hb A1c was assayed using a BIO-RAD (Herculas Calif.) DiaSTAT machine which uses low pressure cation exchange chromatography in conjunction with gradient elution to separate hemoglobin subtypes and variants from hemolyzed blood. The separated hemoglobin fractions were monitored by means of absorption of light at 415 nm.

Data set [2] concerns non-diabetic mice. The data set can be described thus: Daily ip exendin-4 in non-diabetic littermates. It is filed as in vivo, mouse.
Excerpt: as §1
as §2, with “Eleven diabetic and 10 non-diabetic animals received […] exendin-4 ip daily thereafter (7–9 am) while 10 diabetic and 10 non-diabetic animals received ip NaCl. Subsequently,” for “Subsequently,”
as §3

Data set [3] deals with beta cells of the pancreas. The settings on record: Goke et al., 1993; cited from earlier work.
For data set [4], the system named is Wistar rats. Put plainly: Acute intravenous GLP-1 bolus, plasma insulin response in young and old rats. The settings on record: 0.2 nmol/kg iv bolus; for maximal insulin response: 2 min after completion of the bolus. The class given is in vivo, rat. The method, then: Protocols. To insure that old animals were capable of responding to GLP-1, we carried out an acute experiment with an intravenous bolus of GLP-1. Six old (22 months) and 6 young (3 months) Wistar rats were fasted overnight. Following anesthesia with 50 mg/kg pentobarbital, a catheter was placed in the femoral artery for blood sampling, and a bolus of GLP-1 (0.2 nmol/kg) was given into the saphenous vein over 30 sec. Blood (taken at 2, 4, 7, and 10 min) was collected for insulin determination.

How the values of data set [5] were obtained:
The rats were implanted with an Alzet micro-osmotic pump (Alza Corp., Palo Alto, Calif.) in the interscapular region for 48 hrs. […] Control animals received normal saline in their pumps and received their infusion for the same length of time.
Assays. Plasma glucose was measured by the glucose oxidase method (Egan et al., 1991). […] The amount of cellular proteins was measured using the Bradford method (Bio-Rad Richmond, Calif.) using bovine γ-globulin as standard.

In data set [6] the test system is AR42J cells. The data set can be described thus: Immunoreactive insulin release from treated AR42J cells (RIA). The class given is cell-based, rat. On the procedure:
Measurement of immunoreactive insulin. AR42J cells were cultured as before in 12-well cluster plates. When cells reached 60% confluence, they were treated with GLP-1 for 3 days. At the beginning of the experiments, an aliquot of the medium was taken in order to assay the insulin accumulation in the medium. Then the cells were twice washed with Kreb's Ringer Balanced Buffer (KRBB) and incubated in the same buffer containing 10 mM glucose for another 1 h. The medium was collected and kept at −20° C. until insulin levels were assayed by RIA (See Example 1; Wang et al., Endocrinology, 1995). The cells were washed with PBS and detached with 0.25% typsin and 0.02% EDTA. The cell pellet was collected and lysed with formic acid for protein determination by the Bradford method (Bradford, 1976), using bovine-globulin as standard.

Data set [7] deals with AR42J cells. Put plainly: RT-PCR of insulin and glucagon mRNA in AR42J cells. The class given is cell-based, rat. On the procedure:
Reverse-transcription polymerase chain reaction (RT-PCR). Total RNA was isolated from treated AR42J cells by the methods of Chomczynski and Sacchi (1987). The total RNA samples were pretreated with DNAse in 20 mM Tris-HCL (pH 8.4), 2 mM MgCl2 and 50 mM KCl to remove any traces of contaminating genomic DNA. RT-PCR was undertaken in a volume of 50 μl of buffer containing 50 mM KCl, 10 mM Tris-HCl, 3.5 mM MgCl2, 200 μM each dNTPs, 0.4 μM each of sense and antisense primers to rat insulin I and II (insulin sense primer=5′[…]3′; insulin antisense primer=5′[…] 3′). Amplification was undertaken for 25 cycles at denaturing temperature 94° C. for 1 min, annealing temperature 60° C. for 45 sec and an extension temperature 72° C. for 1 min. mRNA from RIN 1046-38 cells were used as a positive control. In the case of glucagon RT-PCR, the denaturing and extension temperature was similar to insulin except the annealing temperature was 65° C. for 1 min (glucagon sense primer=5′ […]3′; antisense primer=5′ […]3′). The RT-PCR products were visualized by ethidium bromide staining on 2% agarose gels.

The test system of data set [8] is Wistar rats. Particulars: De Ore et al., 1997; cited from earlier work.

On to exendin-4, for which the “blood sugar lowering at lower concentration compared with larger amount” value in data set [1] (1 nmol/kg ip for one week, diabetic mice) was “just as effective”. Also, the “weight of the animal for the first 3–4 days of injection” value in data set [1] (back to same as NaCl-treated by the seventh day) is “drops”. Further, in data set [1] (diabetic mice, 9 weeks treatment), the “cage bedding 24 hours after changing vs NaCl-treated diabetic animals (urination)” value is reported as “obviously drier”. Besides, the fasting glucose levels in data set [1] (diabetic mice, 12–13 weeks, NaCl 517±59, p<0.005) was 278.7 ± 30.0 mg/dL. Also, the fasting insulin levels in data set [1] (diabetic mice, 12–13 weeks, NaCl 707.2±169.7, p<0.02) is 4,600±1,114 pmol/l. Moreover, the “Hb A1c” value was found to be 4.7% in data set [1] (diabetic mice, daily ip for 12–13 weeks, NaCl-treated 8.8%, p<0.0001) and 3.5% in data set [2] (12–13 weeks, p=0.0002). In addition, the “fasting glucose level after one week of treatment” value came out at 90 ± 11 mg/dL in data set [1] (diabetic mice, daily ip, NaCl-treated 238±51, p<0.002) and 70 ± 25 mg/dL in data set [2] (NaCl-treated 135±5, p<0.05). The “deaths just after receiving exendin-4” value in data set [1] (diabetic mice, day fourteen) is on record as “one of the diabetic mice died”; in data set [2] (day eight), “two of the non-diabetic mice”. The “fasting insulin levels after one week vs NaCl” value in data set [1] (diabetic mice, p<0.002) is given as “higher”. Also, in data set [1] (diabetic mice, NaCl-treated 38.7 g), the “body weight at 13–14 weeks of treatment” value is listed as 46.7 g. Besides, in data set [1] (long-term daily ip), the “effects of the daily injections on behavior” value was “no untoward effects”. Also, the “trends in glucose and insulin” value in data set [2] (12–13 weeks) was “the same in the non-diabetic animals with exendin-4 treatment though not as dramatic”. The “lowest concentrations increasing cAMP and insulin secretion” value in data set [3] is on record as 10^−10 M.

Consider `CC[C@H](C)[C@H](NC(=O)[C@H](Cc1ccccc1)NC(=O)[C@H](CCC(=O)O)NC(=O)[C@H](CCCCN)NC(=O)[C@H](C)NC(=O)[C@H](C)NC(=O)[C@H](CCC(N)=O)NC(=O)CNC(=O)[C@H](CCC(=O)O)NC(=O)[C@H](CC(C)C)NC(=O)[C@H](Cc1ccc(O)cc1)NC(=O)[C@H](CO)NC(=O)[C@H](CO)NC(=O)[C@@H](NC(=O)[C@H](CC(=O)O)NC(=O)[C@H](CO)NC(=O)[C@@H](NC(=O)[C@H](Cc1ccccc1)NC(=O)[C@@H](NC(=O)CNC(=O)[C@H](CCC(=O)O)NC(=O)[C@H](C)NC(=O)[C@@H](N)Cc1c[nH]cn1)[C@@H](C)O)[C@@H](C)O)C(C)C)C(=O)N[C@@H](C)C(=O)N[C@@H](Cc1c[nH]c2ccccc12)C(=O)N[C@@H](CC(C)C)C(=O)N[C@H](C(=O)N[C@@H](CCCCN)C(=O)NCC(=O)N[C@@H](CCCNC(=N)N)C(N)=O)C(C)C` [GLP-1], for which the maximal insulin response amounted to 347.7 ± 25.7 pmol/L in data set [4] (old (22 month) fasted rats) and 373.3±43.7 pmol/1 in data set [4] (young (3 month) fasted rats). Also, the “time at which insulin levels had returned to baseline” value in data set [4] (young and old rats) is 10 min. Also, in data set [5] (120 min after removal of pumps), the “plasma GLP-1 before commencement of glucose tolerance testing” value is listed as “below the level of detectability”. For the same molecule, the “plasma GLP-1 levels relative to fasting levels” value in data set [5] (during infusion, fasting levels 10–20 pmol/l) is on record as “approximately 6 times”. In addition, the “insulin in cell culture medium” value in data set [6] (1 nM GLP-1 for 3 days, 60–72 h time period, mean±SD of 3 cultures) was 5.1±0.4 pg insulin/μg protein. In addition, the “glucose-induced insulin in buffer” value in data set [6] (3 days of GLP-1, then KRBB with 10 mM glucose for 1 h, control cells zero) was found to be 0.65±0.15 pg insulin/μg protein. In addition, in data set [7] (GLP-1-treated for 3 days, none in non-treated cells), the “rat insulin I and II mRNA by RT-PCR” value is “demonstrated a 187 bp rat insulin I and II mRNA”. In addition, the “glucagon mRNA at 236 bp by RT-PCR” value in data set [7] (GLP-1-treated, 48 h) was “detected”. For the same molecule, in data set [8], the “dose giving maximal insulin response” value is 0.4 nmol/kg.
